Measurements from patent US12343319B2, “Compositions and methods for treatment of diseases and disorders” (Atai Therapeutics Inc., priority 2023, dated 2025).
Read-outs that look alike come from different tables or passages of the source.

Assays:
[1] = biological target: 5-HT2A (Homo sapiens, UniProt P28223); experiment: β-Arrestin, 5-HT2A; assay type: cell-based; set-up: expressed in transfected cells; details: for Emax: read-out: Emax (%5-HT)
Method: (§1) In vitro pharmacology studies were performed to evaluate the effects of compound 2-1 on functional activity of several 5-HT receptors using recombinant target overexpression cell culture systems. The effect of compound 2-1 on G protein-dependent signaling was investigated at 5-HT2A, 5-HT2B, and 5-HT2C receptors with calcium mobilization and IPOne assays; and at 5-HT1A, 5-HT1B, 5-HT1F, 5-HT5A, and 5-HT7D receptors with a cAMP assay. G protein-independent signaling was investigated at the 5-HT2A receptor with a β-Arrestin assay.
(§2) In vitro pharmacology studies were performed to evaluate the effects of compound 2-2 on functional activity at several 5-HT receptors using recombinant target overexpression cell culture systems. The effect of compound 2-2 on G protein-dependent signaling was investigated at 5-HT2A, 5-HT2B, and 5-HT2C receptors with calcium mobilization and IPOne assays; and at 5-HT1A, 5-HT1B, 5-HT1F, 5-HT5A, and 5-HT7D receptors with a cAMP assay. G protein-independent signaling was investigated at the 5-HT2A receptor with a β-arrestin assay. […] In Table 4, 5-HT receptor selectivity was calculated using ΔΔlog(Emax/EC50). Assay reference α-Me-5-HT or 5-HT was used for normalization at each receptor (5-HT2A/5-HT2B selectivity=1; 5-HT2A/5-HT2C selectivity=1). ND in Table 4 indicates, not determined, plateau was not reached within the concentration range tested to determine Emax.

[2] = biological target: T1, 5-HT2C (Homo sapiens, UniProt P28335); experiment: Ca++ (calcium mobilization), 5-HT2C; assay type: cell-based; details: for Emax: Ca++, human 5-HT2C, read-out: Emax (%5-HT)
T1 construct: expressed in transfected cells
T1 sequence (P28335 33-458): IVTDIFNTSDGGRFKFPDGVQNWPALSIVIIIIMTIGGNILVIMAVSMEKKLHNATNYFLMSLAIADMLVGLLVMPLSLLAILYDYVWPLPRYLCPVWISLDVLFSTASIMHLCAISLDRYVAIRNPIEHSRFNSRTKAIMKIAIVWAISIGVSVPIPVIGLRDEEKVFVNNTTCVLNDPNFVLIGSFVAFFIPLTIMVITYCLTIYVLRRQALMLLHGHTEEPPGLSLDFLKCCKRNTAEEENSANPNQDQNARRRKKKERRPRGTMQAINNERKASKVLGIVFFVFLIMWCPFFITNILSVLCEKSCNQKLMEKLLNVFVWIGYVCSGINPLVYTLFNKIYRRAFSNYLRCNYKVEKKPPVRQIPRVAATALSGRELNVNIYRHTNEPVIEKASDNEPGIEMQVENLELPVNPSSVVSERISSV
Method: as §1, §2

[3] = biological target: 5-HT2A receptor (Mus musculus, UniProt P35363); experiment: Mouse head twitch response (HTR); assay type: in vivo; set-up: endogenous in cells; host or cells: adult male C57BL/6J mice, in vivo; details: for ED50: mouse
Method: The head twitch response (HTR) assay in rodents is commonly used as a behavioral proxy for 5-HT2A receptor activation. For classical serotonergic psychedelics, mouse HTR potency correlates with potency of subjective effects in humans. The ability of compound 2-1 to induce HTR in mice was assessed using a validated and automated detection system. Briefly, adult male C57BL/6J mice surgically prepared with a small neodymium magnet (4.57 mm×4.57 mm×2.03 mm) attached to the cranium were injected intraperitoneally (i.p.) with single doses of compound 2-1 (0.3, 1, 3, 10, 30 mg/kg, based on weight of the free base) or 40% (w/v) 2-HPBCD (hydroxypropyl-beta-cyclodextrin) vehicle (n=5-6 mice per treatment). In a 5-HT2A receptor antagonism study, M100907, a 5-HT receptor antagonist (0.001, 0.01, 0.1 mg/kg, i.p.) was administered 20 minutes prior to compound 2-1. Immediately after compound 2-1 injection, the mouse was placed individually in a glass cylinder surrounded by a magnetometer coil. HTR were recorded for 30 minutes and analyzed using a validated technique based on artificial intelligence. […] In FIG. 1A, FIG. 1B, and FIG. 1C, HTR data were analyzed using a 1-way Analysis of Variance (ANOVA) followed by Dunnett's test **p<0.01, ***p<0.001, ****p<0.0001 vs. vehicle).
The HTR assay in rodents is commonly used as a behavioral proxy for 5-HT2A receptor activation. For classical serotonergic psychedelics, mouse HTR potency correlates with potency of subjective effects in humans. The ability of compound 2-2 to induce HTR in mice was assessed using a validated and automated detection system. Briefly, adult male C57BL/6J mice surgically prepared with a small neodymium magnet (4.57 mm×4.57 mm×2.03 mm) attached to the cranium were injected intraperitoneally (i.p.) with single doses of compound 2-2 (0.3, 1, 3, 10, 30 mg/kg, based on weight of the free base) or 40% (w/v) 2-HPBCD vehicle (n=5-6 mice per treatment). In a 5-HT2A receptor antagonism study, M100907 (0.001, 0.01, 0.1 mg/kg, i.p.) was administered 20 minutes prior to compound 2-2. Immediately after compound 2-2 injection, the mouse was placed individually in a glass cylinder surrounded by a magnetometer coil. HTR were recorded for 30 minutes and analyzed using a validated technique based on artificial intelligence. […] HTR were analyzed using a 1-way Analysis of Variance (ANOVA) followed by Dunnett's test (*p<0.05, **p<0.01, ***p<0.001, ****p<0.0001 vs. vehicle).

[4] = biological target: T2, 5-HT2B (Homo sapiens, UniProt P41595); experiment: Radioligand binding, 5-HT2B; details: for Max % inhibition: radioligand binding, human 5-HT2B
T2 construct: expressed in transfected cells

[5] = biological target: T3, 5-HT7D (Homo sapiens, UniProt P34969); experiment: cAMP, 5-HT7D; assay type: cell-based
T3 construct: expressed in transfected cells
Method: as §1, §2

[6] = ip, C57BL/6J mice, 30 minutes, read-out: HTR 50% effective dose (ED50)

T2 sequence (P41595 whole entry): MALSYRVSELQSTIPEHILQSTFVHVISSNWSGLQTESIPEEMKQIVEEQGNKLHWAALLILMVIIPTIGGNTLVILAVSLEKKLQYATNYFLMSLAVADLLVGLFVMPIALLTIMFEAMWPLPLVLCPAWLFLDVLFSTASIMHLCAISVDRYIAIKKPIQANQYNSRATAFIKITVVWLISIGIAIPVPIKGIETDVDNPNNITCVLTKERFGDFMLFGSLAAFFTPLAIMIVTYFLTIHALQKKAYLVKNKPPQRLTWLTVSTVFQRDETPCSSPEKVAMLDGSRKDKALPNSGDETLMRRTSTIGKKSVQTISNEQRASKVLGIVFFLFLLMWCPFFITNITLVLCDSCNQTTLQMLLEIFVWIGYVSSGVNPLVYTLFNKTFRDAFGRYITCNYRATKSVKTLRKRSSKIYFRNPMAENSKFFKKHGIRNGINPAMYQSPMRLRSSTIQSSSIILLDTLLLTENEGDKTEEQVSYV
5-HT2A, sequence (P28223 whole entry): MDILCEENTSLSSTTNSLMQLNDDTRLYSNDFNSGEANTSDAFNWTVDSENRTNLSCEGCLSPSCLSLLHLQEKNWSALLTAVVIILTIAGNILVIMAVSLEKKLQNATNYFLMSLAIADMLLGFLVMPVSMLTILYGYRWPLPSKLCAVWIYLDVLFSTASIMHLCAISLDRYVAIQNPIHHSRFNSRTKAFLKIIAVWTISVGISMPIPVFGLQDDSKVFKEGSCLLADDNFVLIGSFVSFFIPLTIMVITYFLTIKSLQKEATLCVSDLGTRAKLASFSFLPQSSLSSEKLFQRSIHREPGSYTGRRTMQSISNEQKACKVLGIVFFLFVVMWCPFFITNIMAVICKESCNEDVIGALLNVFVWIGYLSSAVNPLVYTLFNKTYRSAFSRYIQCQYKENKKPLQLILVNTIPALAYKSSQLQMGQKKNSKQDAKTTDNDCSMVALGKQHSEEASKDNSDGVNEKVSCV
5-HT2A receptor, sequence (P35363 whole entry): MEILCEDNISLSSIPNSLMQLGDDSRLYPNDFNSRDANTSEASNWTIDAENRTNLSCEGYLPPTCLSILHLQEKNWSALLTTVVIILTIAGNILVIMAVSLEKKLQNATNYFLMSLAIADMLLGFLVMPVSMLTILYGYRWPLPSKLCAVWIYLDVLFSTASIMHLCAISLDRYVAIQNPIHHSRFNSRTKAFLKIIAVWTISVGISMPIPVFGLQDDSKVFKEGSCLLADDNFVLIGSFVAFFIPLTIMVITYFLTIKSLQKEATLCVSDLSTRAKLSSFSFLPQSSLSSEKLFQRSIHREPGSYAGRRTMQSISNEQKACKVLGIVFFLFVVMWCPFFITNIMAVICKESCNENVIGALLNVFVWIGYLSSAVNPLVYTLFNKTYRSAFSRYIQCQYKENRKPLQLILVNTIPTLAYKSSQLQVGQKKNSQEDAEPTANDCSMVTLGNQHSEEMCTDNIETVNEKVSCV
T3 sequence (P34969 whole entry): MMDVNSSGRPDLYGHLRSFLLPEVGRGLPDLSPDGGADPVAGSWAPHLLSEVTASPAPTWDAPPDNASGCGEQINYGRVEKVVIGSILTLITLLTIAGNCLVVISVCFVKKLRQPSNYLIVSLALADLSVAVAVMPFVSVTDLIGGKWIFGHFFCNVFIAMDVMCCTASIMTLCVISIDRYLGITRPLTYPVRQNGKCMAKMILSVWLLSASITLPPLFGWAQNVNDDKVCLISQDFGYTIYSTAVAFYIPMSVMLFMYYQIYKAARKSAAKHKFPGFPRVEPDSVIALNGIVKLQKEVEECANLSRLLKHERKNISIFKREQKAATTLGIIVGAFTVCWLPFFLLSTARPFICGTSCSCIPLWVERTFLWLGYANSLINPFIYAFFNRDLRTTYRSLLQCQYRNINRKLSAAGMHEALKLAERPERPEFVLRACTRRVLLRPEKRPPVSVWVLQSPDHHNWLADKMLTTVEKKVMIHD

Row | Structure (SMILES) | EC50 [1] | Emax [1] | EC50 [2] | Emax [2] | shape of HTR dose-response curve ([3]; 0.3-30 mg/kg i.p.) | HTR compared to vehicle ([3]; 3 and 10 mg/kg, i.p.) | HTR after M100907 pretreatment ([3]; M100907 0.001, 0.01, 0.1 mg/kg i.p. 20 minutes prior, compound i.p.) | ED50 [3, 6] | ED50 ([3]; po, mice, read-out: HTR ED50) | HTR compared to vehicle ([3]; oral, 30 mg/kg) | IC50 [4] | Max % inhibition [4] | EC50 [5]
1 | COc1ccc(OC)c(CCNCc2cc(C)cc(Cl)c2)c1 [Compound 2-1, N-(3-chloro-5-methylbenzyl)-2-(2,5-dimethoxyphenyl)ethan-1-amine] | 17.2 nM | 89.3% | 42.2 nM | 82% | inverted “U”-shaped | significantly increased | significant dose-dependent attenuation | 1.7 mg/kg | 15.7 mg/kg | increased HTR significantly | 84.9 nM | 102.5% | > 100000 nM
2 | COc1ccc(OC)c(CCNCc2cc(C)cc(F)c2)c1 [Compound 2-2, 2-(2,5-dimethoxyphenyl)-N-(3-fluoro-5-methylbenzyl)ethan-1-amine] | 25.8 nM | 82.1% | 73.5 nM | 88.2% |  |  |  | 3.2 mg/kg | 13.7 mg/kg |  | 321 nM | 99.56% | > 100000 nM
